Converted amounts (≈) assume the structure as drawn. Counter-ions that a name gives are not always drawn.
How the values were obtained:
Streptococcus pneumoniae = assay: MIC, Streptococcus pneumoniae; format: cell-based; conditions: agar with 5% defibrinated horse blood, 5% carbon dioxide, 48 hours
Method: (§1) The following results were obtained on a standard in-vitro test system. The activity is described in terms of the minimum inhibitory concentration (MIC) determined by the agar-dilution technique with an inoculum size of 10^4 CFU/spot. Typically, compounds are active in the range 0.01 to 256 μg/ml.
(§2) Streptococci and enterococci were tested on agar supplemented with 5% defibrinated horse blood, an inoculum of 10^4 CFU/spot and an incubation temperature of 37° C. in an atmosphere of 5% carbon dioxide for 48 hours—blood is required for the growth of some of the test organisms. Fastidious Gram negative organisms were tested in Mueller-Hinton broth, supplemented with hemin and NAD, grown aerobically for 24 hours at 37° C., and with an inoculum of 5×10^4 CFU/well.

[1] = tested on: Staphylococcus aureus MSQS (methicillin sensitive and quinolone sensitive); assay: MIC by agar-dilution, Staphylococcus aureus MSQS; format: cell-based; conditions: inoculum 10^4 CFU/spot, 37° C., 24 hours
Method: as §1
(§3) Staphylococci were tested on agar, using an inoculum of 10^4 CFU/spot and an incubation temperature of 37° C. for 24 hours—standard test conditions for the expression of methicillin resistance.

[2] = tested on: Staphylococcus aureus MRQR (methicillin resistant and quinolone resistant); assay: MIC by agar-dilution, Staphylococcus aureus MRQR; format: cell-based; conditions: inoculum 10^4 CFU/spot, 37° C., 24 hours
Method: as §1, §3

[3] = tested on: Linezolid Resistant Streptococcus pneumoniae; assay: MIC, Linezolid Resistant Streptococcus pneumoniae; format: cell-based; conditions: agar with 5% defibrinated horse blood, 5% carbon dioxide, 48 hours
Method: as §1, §2

Moraxella catarrhalis = assay: MIC, Moraxella catarrhalis; format: cell-based; conditions: Mueller-Hinton broth with hemin and NAD, 24 hours, 5×10^4 CFU/well
Method: as §1, §2

MAO-A = target: T1, MAO-A (Homo sapiens, UniProt P21397); assay: MAO-A standard in-vitro assay, human liver enzyme expressed in yeast; format: biochemical; conditions: read-out: Ki against MAO-A
T1 construct: made in house; host or cells: yeast
T1 sequence (P21397 1-527): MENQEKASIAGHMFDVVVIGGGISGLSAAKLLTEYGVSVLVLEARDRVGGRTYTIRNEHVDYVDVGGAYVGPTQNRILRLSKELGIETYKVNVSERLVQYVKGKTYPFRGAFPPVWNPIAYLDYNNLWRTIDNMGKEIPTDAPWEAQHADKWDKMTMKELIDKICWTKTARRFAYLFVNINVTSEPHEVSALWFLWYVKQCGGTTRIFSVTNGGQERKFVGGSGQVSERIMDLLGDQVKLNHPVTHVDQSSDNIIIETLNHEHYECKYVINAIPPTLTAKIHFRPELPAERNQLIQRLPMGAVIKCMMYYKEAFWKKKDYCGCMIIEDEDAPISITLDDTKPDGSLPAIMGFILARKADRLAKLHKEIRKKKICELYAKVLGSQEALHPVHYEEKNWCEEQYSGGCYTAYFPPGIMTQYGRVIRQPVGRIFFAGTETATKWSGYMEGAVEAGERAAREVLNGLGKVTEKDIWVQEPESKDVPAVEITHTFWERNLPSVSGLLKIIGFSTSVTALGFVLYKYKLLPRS
Method: The activity of the compounds of the invention against MAO-A was tested using a standard in-vitro assay based on human liver enzyme expressed in yeast as described in Biochem. Biophys. Res. Commun. 1991, 181, 1084-1088.

Haemophilus influenzae = assay: MIC, Haemophilus influenzae; format: cell-based; conditions: Mueller-Hinton broth with hemin and NAD, 24 hours, 5×10^4 CFU/well
Method: as §1, §2

[4] = tested on: Staphylococci, Streptococci, enterococci, fastidious Gram negative organisms; assay: standard in-vitro test system, antibacterial activity (MIC); format: cell-based; conditions: result in words
Excerpt: The pharmaceutically-acceptable compounds of the present invention are useful antibacterial agents having a good spectrum of activity in vitro against standard Gram-positive organisms, which are used to screen for activity against pathogenic bacteria. […] The antibacterial spectrum and potency of a particular compound may be determined in a standard test system.
as §1, §3, §2

Row | melting point [°C] | Compound | also measured
1 | 119 | CC[C@H](C)[C@H](N)C(=O)OCCOC[C@@H]1CC(c2ccc(-c3ccc(N4C[C@H](Cn5ccnn5)OC4=O)cc3F)cn2)=NO1 (as salt: HCl) [Example 17, 2-{[(5S)-3-(5-{2-Fluoro-4-[(5R)-2-oxo-5-(1H-1,2,3-triazol-1-ylmethyl)-1,3-oxazolidin-3-yl]phenyl}pyridin-2-yl)-4,5-dihydroisoxazole-5-yl]methoxy}ethyl L-isoleucinate] | 
2 | 110 to 115 | CN(C)CC(O)COC[C@@H]1CC(c2ccc(-c3ccc(N4C[C@H](Cn5ccnn5)OC4=O)cc3F)cn2)=NO1 (some centres unmarked) (as salt: hydrochloride) [Example 19] | 
3 | 171 | O=C1OC(Cn2ccnn2)CN1c1ccc(-c2ccc(C3=NO[C@H](COCCN4CCOCC4)C3)nc2)c(F)c1 (stereo in doubt) [Example 10, (5S)-3-[3-Fluoro-4-(6-{(5S)-5-[(2-morpholin-4-ylethoxy)methyl]-4,5-dihydroisoxazole-3-yl}pyridin-3-yl)phenyl]-5-(1H-1,2,3-triazol-1-ylmethyl)-1,3-oxazolidin-2-one] | 
4 | 190 | O=C(O)COC[C@@H]1CC(c2ccc(-c3ccc(N4C[C@H](Cn5ccnn5)OC4=O)cc3F)cn2)=NO1 [Example 3, {[(5S)-3-(5-{2-Fluoro-4-[(5R)-2-oxo-5-(1H-1,2,3-triazol-1-ylmethyl)-1,3-oxazolidin-3-yl]phenyl}pyridin-2-yl)-4,5-dihydroisoxazole-5-yl]methoxy}acetic acid] | 
5 | 153 to 156 | CNC(=O)COC[C@@H]1CC(c2ccc(-c3ccc(N4C[C@H](Cn5ccnn5)OC4=O)cc3F)cn2)=NO1 [Example 4, 2-{[(5S)-3-(5-{2-Fluoro-4-[(5R)-2-oxo-5-(1H-1,2,3-triazol-1-ylmethyl)-1,3-oxazolidin-3-yl]phenyl}pyridin-2-yl)-4,5-dihydroisoxazole-5-yl]methoxy}-N-methylacetamide] | MIC (Streptococcus pneumoniae): 0.06 µg/mL (≈ 0.118 µM); MIC [1]: 0.25 µg/mL (≈ 0.491 µM); MIC [2]: 0.5 µg/mL (≈ 0.981 µM); MIC [3]: 1 µg/mL (≈ 1.96 µM); MIC (Moraxella catarrhalis): 0.5 µg/mL (≈ 0.981 µM); Ki (MAO-A): 8 µM; MIC (Haemophilus influenzae): 8 µg/mL (≈ 15.7 µM)
6 | 166 to 168 | CN(C)C(=O)COC[C@@H]1CC(c2ccc(-c3ccc(N4C[C@H](Cn5ccnn5)OC4=O)cc3F)cn2)=NO1 [Example 5, 2-{[(5S)-3-(5-{2-Fluoro-4-[(5R)-2-oxo-5-(1H-1,2,3-triazol-1-ylmethyl)-1,3-oxazolidin-3-yl]phenyl}pyridin-2-yl)-4,5-dihydroisoxazole-5-yl]methoxy}-N,N-dimethylacetamide] | 
7 | 165 to 175 | CN1CCN(C(=O)COC[C@@H]2CC(c3ccc(-c4ccc(N5C[C@H](Cn6ccnn6)OC5=O)cc4F)cn3)=NO2)CC1 [Example 6, (5R)-3-{3-Fluoro-4-[6-((5S)-5-{[2-(4-methylpiperazin-1-yl)-2-oxoethoxy]methyl}-4,5-dihydroisoxazole-3-yl)pyridin-3-yl]phenyl}-5-(1H-1,23-triazol-1-ylmethyl)-1,3-oxazolidin-2-one] | 
8 | 176 | O=C1O[C@@H](Cn2ccnn2)CN1c1ccc(-c2ccc(C3=NO[C@H](COCCCO)C3)nc2)c(F)c1 [Example 7, (5R)-3-[3-Fluoro-4-(6-{(5S)-5-[(3-hydroxypropoxy)methyl]-4,5-dihydroisoxazole-3-yl}pyridin-3-yl)phenyl]-5-(1H-1,23-triazol-1-ylmethyl)-1,3-oxazolidin-2-one] | 
9 | 162 | O=C1O[C@@H](Cn2ccnn2)CN1c1ccc(-c2ccc(C3=NO[C@H](COCCO)C3)nc2)c(F)c1 [Example 8] | 
10 | 170 | CS(=O)(=O)NCCOC[C@@H]1CC(c2ccc(-c3ccc(N4C[C@H](Cn5ccnn5)OC4=O)cc3F)cn2)=NO1 [Example 13, N-(2-{[(5S)-3-(5-{2-Fluoro-4-[(5R)-2-oxo-5-(1H-1,2,3-triazol-1-ylmethyl)-1,3-oxazolidin-3-yl]phenyl}pyridin-2-yl)-4,5-dihydroisoxazole-5-yl]methoxy}ethyl)methanesulfonamide] | 
11 | 134 | CC(=O)NCCOC[C@@H]1CC(c2ccc(-c3ccc(N4C[C@H](Cn5ccnn5)OC4=O)cc3F)cn2)=NO1 [Example 14, N-(2-{[(5S)-3-(5-{2-Fluoro-4-[(5R)-2-oxo-5-(1H-1,2,3-triazol-1-ylmethyl)-1,3-oxazolidin-3-yl]phenyl}pyridin-2-yl)-4,5-dihydroisoxazole-5-yl]methoxy}ethyl)acetamide] | 
12 | 90 to 115 | N#CCOC[C@@H]1CC(c2ccc(-c3ccc(N4C[C@H](Cn5ccnn5)OC4=O)cc3F)cn2)=NO1 [Example 15, {[(5S)-3-(5-{2-Fluoro-4-[(5R)-2-oxo-5-(1H-1,2,3-triazol-1-ylmethyl)-1,3-oxazolidin-3-yl]phenyl}pyridin-2-yl)-4,5-dihydroisoxazole-5-yl]methoxy}acetonitrile] | 
13 | 180 to 187 | CC(C)(O)COC[C@@H]1CC(c2ccc(-c3ccc(N4C[C@H](Cn5ccnn5)OC4=O)cc3F)cn2)=NO1 [Example 16] | 
14 | 135 to 140 | CN(CCOC[C@@H]1CC(c2ccc(-c3ccc(N4C[C@H](Cn5ccnn5)OC4=O)cc3F)cn2)=NO1)CC(=O)O [Example 20, N-(2-{[(5S)-3-(5-{2-Fluoro-4-[(5R)-2-oxo-5-(1H-1,2,3-triazol-1-ylmethyl)-1,3-oxazolidin-3-yl]phenyl}pyridin-2-yl)-4,5-dihydroisoxazole-5-yl]methoxy}ethyl)-N-methylglycine] | 
15 | 186 | CC(C)(C)OC(=O)COC[C@@H]1CC(c2ccc(-c3ccc(N4C[C@H](Cn5ccnn5)OC4=O)cc3F)cn2)=NO1 [Pro-drug Example 1, tert-Butyl {[(5S)-3-(5-{2-fluoro-4-[(5R)-2-oxo-5-(1H-1,2,3-triazol-1-ylmethyl)-1,3-oxazolidin-3-yl]phenyl}pyridin-2-yl)-4,5-dihydroisoxazole-5-yl]methoxy}acetate] | 
16 | 162 | C=CCOC[C@@H]1CC(c2ccc(-c3ccc(N4C[C@H](Cn5ccnn5)OC4=O)cc3F)cn2)=NO1 [compound 2, (5R)-3-[4-(6-{(5S)-5-[(Allyloxy)methyl]-4,5-dihydroisoxazole-3-yl}pyridin-3-yl)-3-fluorophenyl]-5-(1H-1,2,3-triazol-1-ylmethyl)-1,3-oxazolidin-2-one] | antibacterial activity [4]: have antibacterial activity
17 | 148 | [N-]=[N+]=NCCOC[C@@H]1CC(c2ccc(-c3ccc(N4C[C@H](Cn5ccnn5)OC4=O)cc3F)cn2)=NO1 [compound 9] | antibacterial activity [4]: have antibacterial activity

Source: patent publication US20070208062A1, “3-(4-(2-DIHYDROISOXAZOL-3-YLPYRIDIN-5-YL)PHENYL)-5-TRIAZOL-1-YLMETHYLOXAZOLIDIN-2-ONE DERIVATIVES AS MAO INHIBITORS FOR THE TREATMENT OF BACTERIAL INFECTIONS” (ASTRAZENECA AB, priority 2004, published 2007)
